Measurements published in the supplement of paper PMC10307832.

Experiments:
Experiment in all cases: relative viability (nuclei count vs DMSO), 5 days (fraction); higher = more cells survive
[1] = compound: CN1C=C(C2=CC=CC=C21)/C=C\3/C4=C(C=CC=N4)NC3=O + COc1cccc2cc(-c3nc([C@H]4CC[C@H](C(=O)O)CC4)n4ncnc(N)c34)[nH]c12 [OSI-027] (partner 0.5 µM)
Summary of the method: (§1)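 Relative viability was taken as the ratio of nuclei in treated wells to nuclei in vehicle wells. Lung cancer cell lines in 1536-well plates received compounds by pin tool one day after seeding, either one drug alone or a fixed anchor-drug dose plus five library-drug doses (not always all listed) in √10 steps. Nuclei were counted on 4× images after 5 days of treatment, and values are medians of duplicate plates.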

[2] = compound: CC(=O)Nc1cccc(-n2c(=O)n(C3CC3)c(=O)c3c(Nc4ccc(I)cc4F)n(C)c(=O)c(C)c32)c1 [Trametinib] + C[C@@H](Oc1cc(-c2cnn(C3CCNCC3)c2)cnc1N)c1c(Cl)ccc(F)c1Cl [Crizotinib] (partner 1 µM)
Summary of the method: as §1

[3] = compound: CC(=O)Nc1cccc(-n2c(=O)n(C3CC3)c(=O)c3c(Nc4ccc(I)cc4F)n(C)c(=O)c(C)c32)c1 [Trametinib] + O=C(c1cc(Cc2n[nH]c(=O)c3ccccc23)ccc1F)N1CCN(C(=O)C2CC2)CC1 [Olaparib] (partner 8 µM)
Summary of the method: as §1

[4] = compound: CC(=O)Nc1cccc(-n2c(=O)n(C3CC3)c(=O)c3c(Nc4ccc(I)cc4F)n(C)c(=O)c(C)c32)c1 [Trametinib] + CC(=O)c1c(C)c2cnc(Nc3ccc(N4CCNCC4)cn3)nc2n(C2CCCC2)c1=O [Palbociclib] (partner 0.5 µM)
Summary of the method: as §1

UMC-11 gave a relative viability ([1]; first compound 0.02 µM) of 0.513, a relative viability ([1]; first compound 0.06325 µM) of 0.49 and a relative viability ([1]; first compound 0.2 µM) of 0.461. It also gave a relative viability ([1]; first compound 0.6325 µM) of 0.536, a relative viability ([1]; first compound 2 µM) of 0.494 and a relative viability ([2]; first compound 0.0025 µM) of 0.634. The relative viability ([2]; first compound 0.007906 µM) was 0.591, the relative viability ([2]; first compound 0.025 µM) was 0.679 and the relative viability ([2]; first compound 0.07906 µM) was 0.647. For the same cell line, the relative viability ([2]; first compound 0.25 µM) was 0.566, the relative viability ([3]; first compound 0.0025 µM) was 0.547 and the relative viability ([3]; first compound 0.007906 µM) was 0.455. For the same cell line, the relative viability ([3]; first compound 0.07906 µM) was 0.303, the relative viability ([3]; first compound 0.25 µM) was 0.29 and the relative viability ([4]; first compound 0.0025 µM) was 0.32. For the same cell line, the relative viability ([4]; first compound 0.007906 µM) was 0.333 and the relative viability ([4]; first compound 0.25 µM) was 0.312.
